In the series the test system is bleeding time. The conditions noted are these: rat, in vivo, 2 mg/kg.

With heparin, the “increase in the bleeding time” value is 13.
